Patent US20260198495A1, “BINARY INSECTICIDE COMPOSITION AND USE THEREOF” (SHENYANG SINOCHEM AGROCHEMICALS R & D CO., LTD., priority 2022, published 2026)

Assays:
Format in all cases: in vivo
[1] = test system: 3rd-instar larvae of Pyrausta nubilalis Hubern; test: Synergism assay (Bliss) of I-72 + cartap, monosultap, bisultap, Example 5, Table 5; conditions: Ostrinia nubilalis, 72 h, read-out: Mortality rate (%)
Procedure: Test subject: 3rd-instar larvae of Pyrausta nubilalis Hubern, a sensitive strain reared indoors.
Test conditions: temperature: 24-26° C., humidity: RH 60%, and illumination: L:D=14:10
Preparation method: the test pesticides were accurately weighed respectively with an electronic analytical balance. After the two technical materials were respectively added into an appropriate amount of solvent and completely dissolved, the stock solution of the required concentration was prepared with water containing 0.1% Tween 80. The stock solutions of the two active ingredients were mixed in a certain ratio to prepare a mixed solution, which was then diluted respectively into a series of pesticide solutions with a certain concentration gradient according to the experimental design dosage.
Experimental method: the artificial diet-pesticide film method was adopted. A standard clean 24-well culture plate was selected. 1 ml of artificial diet was added to each well. After the diet cooled and solidified, a quantitative amount of a pesticide solution was added to the culture plate using a continuous sampler, and then it was air-dried naturally in the shade. The standard test insects were introduced, with 1 insect in each well, a total of 48 insects. The treated test insects were placed in an observation room under certain conditions. The reaction of the test insects was regularly observed, and the number of dead and live insects was investigated 72 h later.
The evaluation method adopted was the Bliss method. This method is applicable to the qualitative screening of insecticidal compositions. According to the concept of independent joint action he proposed, Bliss believes that the theoretical mortality rate P when insecticides are used in combination can be calculated by the following formula: […]
Pm is the mortality rate (%) of the target when the first active ingredient is at a concentration of m; and Pn is the mortality rate (%) of the target when the second active ingredient is at a concentration of n.
If the actual mortality rate of the target after the two active ingredients are mixed at a certain concentration is greater than theoretical mortality rate P, it is determined that the two active ingredients have a synergistic effect when used in combination at the set concentration, and otherwise, they have an antagonistic effect.

[2] = test system: 3rd-instar larvae of Chilo suppressalis (Walker); test: Joint toxicity of I-72 + organophosphorus insecticides, rice seedling dipping, Example 15, Table 15; conditions: 3rd-instar larvae, rice seedling dipping, 48 h, A = compound I-72, B = diazinon, read-out: LC50
Method in brief: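 Rice seedling sections dipped 10 s in acetone/0.1% Tween 80 dilutions of single agents or mixtures, air-dried and fed to lab-reared 3rd-instar larvae (10 per dish, 3 replicates). Mortality scored after 48 h, Abbott-corrected; LC50 with 95% limits by regression, and co-toxicity coefficients by the Sun Y-P method.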

[3] = test system: 2nd-instar larvae of Plutella xylostella; test: Joint toxicity of I-72 + spiropidion, Example 31, Table 31; conditions: Plutella xylostella, foliar; A = compound I-72, B = spiropidion; cabbage leaf dipping; 72 hours; read-out: LC50
Procedure: Test target: 2nd-instar larvae of Plutella xylostella.
Preparation of the pesticide solution: according to different test requirements, the test samples were accurately weighed respectively with an electronic analytical balance. The technical pesticides were dissolved in acetone, and then diluted with 0.1% Tween 80 water into a series of pesticide solutions with a certain concentration gradient according to the experimental design dosage.
Experimental method: first, cabbage leaves were selected and dipped in the prepared pesticide solution for 10 s in the order from low dosage to high dosage according to the experimental design. After natural air-drying in the shade, they were placed in a 9-cm-diameter Petri dish with filter paper, and uniform and healthy test insects were introduced, with 10 insects for each treatment and 3 replicates for each treatment. In addition, a blank control was set up.
The treated test materials were placed in an observation room, and the temperature, humidity and illumination of the observation room could be adjusted as needed. The number of dead and live insects was investigated 72 hours later. […] Then, the co-toxicity coefficient of each ratio was calculated using the Sun Y-P method to evaluate the mixing effect (the same as in Example 1).

Structure (SMILES): CN(C(=O)c1ccc2c(c1)OC(F)(F)O2)c1cccc(C(=O)Nc2c(Br)cc(C(F)(C(F)(F)F)C(F)(F)F)cc2OC(F)F)c1F [Compound I-72]
- mortality at 0.1 µg/mL ([1]; single agent 0.1 mg/L): 22.9%
- mortality at 0.5 µg/mL ([1]; single agent 0.5 mg/L): 41.7%
- mortality at 1 µg/mL ([1]; single agent 1 mg/L): 60.4%
- mortality at 2 µg/mL ([1]; single agent 2 mg/L): 70.8%
- mortality at 5 µg/mL ([1]; single agent 5 mg/L): 87.5%
- LC50 [2]: 1.76 µg/mL
- LC50 [3]: 0.0876 µg/mL
